Assay results taken from ChEMBL document CHEMBL3988442, “University of Dundee, Small-Polar-MMV Screening Library” (2021).
Several values for one entry are separate records, joined by “and”; a condition that tells them apart may be missing. Equal values may be shown once.

Molecular target: T1, Coenzyme A biosynthesis bifunctional protein CoaBC (Mycobacterium tuberculosis (strain ATCC 25618 / H37Rv), UniProt P9WNZ1)
T1 sequence (P9WNZ1 whole entry): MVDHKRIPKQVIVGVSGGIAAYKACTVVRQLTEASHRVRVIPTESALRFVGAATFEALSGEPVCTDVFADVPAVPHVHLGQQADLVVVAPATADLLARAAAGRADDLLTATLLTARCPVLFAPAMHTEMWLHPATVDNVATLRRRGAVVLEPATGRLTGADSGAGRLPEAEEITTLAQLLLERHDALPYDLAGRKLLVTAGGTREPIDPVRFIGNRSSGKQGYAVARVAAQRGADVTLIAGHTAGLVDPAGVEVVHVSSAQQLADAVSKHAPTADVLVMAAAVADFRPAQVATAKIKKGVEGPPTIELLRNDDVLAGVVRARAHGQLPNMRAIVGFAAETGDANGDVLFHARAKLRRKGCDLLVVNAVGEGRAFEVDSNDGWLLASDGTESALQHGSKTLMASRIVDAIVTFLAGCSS
Experiment: Biomol Green assay for MtCoaBC inhibitor, OD650 read
Assay type: functional

Row | Structure (SMILES) | IC50
1 | COc1ccccc1OCC(=O)NS(=O)(=O)c1cccnc1 | > 30.2 µM
2 | CC(C)CCc1n[nH]c(C(=O)O)c1Cl | > 50.1 µM
3 | O=C(CN1CCN(C(=O)c2ccccc2)CC1)Nc1ncc(Br)cc1Br | > 30.2 µM
4 | CCC[C@@H]1CN(Cc2c[nH]nc2-c2ccc(OC)cc2)C[C@H]1NC(C)=O | > 30.2 µM
5 | O=C(O)COc1ccc(CN2CCCC(CCc3ccccc3)C2)cc1 (centres undefined) | 19.9 µM and 19.6 µM
6 | Cc1cc(C)c(C(=O)NC(c2nnc3n2CCNCC3)C(C)C)c(C)c1 (centres undefined) | > 30.2 µM
7 | CC(NCc1ccccc1Cl)c1ccc2[nH]c(=O)[nH]c2c1 (centres undefined) | > 30.2 µM
8 | Cc1nn(C)c(Cl)c1C1CCCN1C(=O)c1ccncc1 (centres undefined) | > 30.2 µM
9 | CCn1ncc2c1NC(=O)CC2c1cnc(-c2ccccn2)nc1 (centres undefined) | > 30.2 µM
10 | CCCc1noc(C(C)N2CCN(CCn3ccccc3=O)CC2)n1 (centres undefined) | > 30.2 µM
11 | CC(C)c1noc(CN2CCN(C(=O)c3cc(Cl)ccc3F)CC2)n1 | > 30.2 µM
12 | Cc1cc(C)n(C2CN(c3ncnc4c3CCC4)C2)n1 | > 30.2 µM
13 | COc1ccc(-c2noc(C3CC(C(C)C)=NO3)n2)cc1 (centres undefined) | > 30.2 µM
14 | CNC(=O)CCc1cccc(C2CCCN(c3cc(C)ncn3)C2)n1 (centres undefined) | > 30.2 µM
15 | NC(=O)CC1CCN(S(=O)(=O)c2cnn(-c3ccccc3)c2)CC1 | > 30.2 µM
16 | O=C(Cc1cccc2ccccc12)N1CCC(Nc2cccnn2)CC1 | > 30.2 µM
17 | O=C(NCCn1nc2ccccn2c1=O)c1cc[nH]n1 | > 30.2 µM
18 | O=C1CCC2(CCN(Cc3cscn3)CC2)CN1CC1CCCO1 (centres undefined) | > 30.2 µM
19 | Cc1cc(N2CCC(c3ncc[nH]3)CC2)nc(N)n1 | > 30.2 µM
20 | O=C(O)C1CCN(c2nc3c(-c4ccccc4F)csc3c(=O)[nH]2)CC1 | > 30.2 µM
21 | NC(=O)CCNC(=O)C1(N2CCCCC2)Cc2ccccc2C1 | > 30.2 µM
22 | Clc1cccc(Cl)c1CN(CCCN1CCOCC1)Cc1cccnc1 | > 30.2 µM
23 | CCn1ncnc1C(C)NC(=O)CC1CCN(C(C)C)CC1 (centres undefined) | > 30.2 µM
24 | CCCn1cc(CN2CCOCC2c2[nH]ncc2C)cn1 (centres undefined) | > 30.2 µM
25 | CN1CCOC[C@H]1c1nc(-c2ccc(F)cc2F)c[nH]1 | > 30.2 µM

Row | Structure (SMILES) | IC50
26 | Cc1nc(CN2CCCC2Cn2cncn2)nc2ccccc12 (centres undefined) | > 30.2 µM
27 | Cc1ccc(OCCC(=O)N2CCOCC2c2ncon2)cc1C (centres undefined) | > 30.2 µM
28 | CC(NC(=O)CNC(=O)OC(C)(C)C)c1ccc(Cl)s1 (centres undefined) | > 30.2 µM
29 | COCCC(=O)N1CC2(CCN(Cc3ccoc3)C2)C1 | > 30.2 µM
30 | CC(C)c1noc(CN2CCN(C(=O)c3cccnc3O)CC2)n1 | > 30.2 µM
31 | CNc1cc(C)nc(C2CCN(CCO)CC2)n1 | > 30.2 µM
32 | CCc1ncncc1C(=O)NCCNS(=O)(=O)c1ccccc1 | > 50.1 µM
33 | Cc1ccc(C(=O)O)cc1CNC(=O)CN1CC[C@](C)(O)C(C)(C)C1 | > 30.2 µM
34 | CN(Cc1nnc(C2CC2)n1C)C1CCN(Cc2ccncc2)C1 (centres undefined) | > 30.2 µM
35 | O=C(CCC1CCN(C2CCSCC2)CC1)NCC1CCCO1 (centres undefined) | > 30.2 µM
36 | CCc1nc(C)c(CN2CCCC(c3nn(C)c(=O)n3CC)C2)[nH]1 (centres undefined) | > 30.2 µM
37 | CC(C)c1ncc2c(n1)CN(Cc1nc(-c3ccccn3)no1)CC2 | > 30.2 µM
38 | Cc1nn(C)c(Cl)c1C1CCCN1Cc1nc(-c2ccco2)no1 (centres undefined) | > 30.2 µM
39 | CN1CCN(c2ncc3c(=O)n(Cc4ccco4)ccc3n2)CC1 | > 30.2 µM
40 | CCOCC1CN(C(=O)C2=CCCC2)Cc2cnn(C)c21 (centres undefined) | > 30.2 µM
41 | CCN(CC)C1CCN(C(=O)NCc2cccc(-n3cccn3)c2)C1 (centres undefined) | > 30.2 µM
42 | CN(C)c1ncc(CN2CCCC(Nc3ccc4c(c3)OCCO4)C2)s1 (centres undefined) | > 30.2 µM
43 | CC(C)COCC(NC(=O)c1cnccn1)c1ccco1 (centres undefined) | > 30.2 µM
44 | Cc1sc(NC(=O)CN(C)CCOc2cccc(F)c2)c(C)c1C | > 30.2 µM
45 | Cc1nn(-c2ccccc2)cc1C(=O)N1CCCC1c1cnn(C)c1 (centres undefined) | > 30.2 µM
46 | Cc1cccc(NC(=O)NC2CCC3(C2)OCCO3)c1Cl (centres undefined) | > 30.2 µM
47 | COc1ccc(NC2CCCN(Cc3cnc(N(C)C)s3)C2)cc1OC (centres undefined) | > 30.2 µM
48 | COc1c(C)cc(CNCc2ccnc(N3CCOCC3)c2)cc1C | > 30.2 µM
49 | O=C1COC[C@H]([C@H](O)c2ccc(NC(=O)c3cccnc3)cc2)N1 | > 30.2 µM
50 | CN(C)C(=O)c1ccc(C(C(=O)O)N(C)Cc2ccccc2Cl)cc1 (centres undefined) | > 30.2 µM

Row | Structure (SMILES) | IC50
51 | CC(=O)N1CCC(N2CCN3C(=O)N(Cc4ccccn4)C[C@H]3C2)CC1 | > 30.2 µM
52 | C1=C(CNC2CCc3ncnn3C2)COc2ccccc21 (centres undefined) | > 30.2 µM
53 | COc1cccc(CNC(=O)c2cc(C)nc(N3CCCCC3)n2)c1 | > 30.2 µM
54 | Fc1cccc(-c2nc(CN3CCCC(Cn4cncn4)C3)co2)c1 (centres undefined) | > 30.2 µM
55 | COCCN1CC(C(=O)N(CCN(C)C)Cc2ccc(C)s2)CC1=O (centres undefined) | > 30.2 µM
56 | CCS(=O)(=O)c1ccc2oc([C@H]3CCN(Cc4ccccn4)C3)nc2c1 | > 30.2 µM
57 | NS(=O)(=O)c1cc(C(=O)N2CCCCC2)cs1 | > 30.2 µM
58 | Cc1cc(C)n(C2CN(CC(=O)N(C)Cc3cnn(C)c3)C2)n1 | > 30.2 µM
59 | Cc1cccc(NC2CCN(C(=O)Nc3ccccn3)CC2)n1 | > 30.2 µM
60 | CCC(c1ccncc1)N(C)S(C)(=O)=O (centres undefined) | > 30.2 µM
61 | CCn1cc(CN(C)Cc2cnn(-c3ccc(F)cc3)c2)cn1 | > 30.2 µM
62 | COCC(=O)N1CCC(Oc2cccc(C)c2)CC1 | > 30.2 µM
63 | CCCS(=O)(=O)NCC(O)c1c(Cl)cccc1Cl (centres undefined) | > 30.2 µM
64 | NC(=O)N1CCC2(CC1)CN(c1ccsc1)C(=O)CO2 | > 30.2 µM
65 | CN(C)CC(=O)N1CCC2(CC1)CN(c1ccsc1)C(=O)CO2 | > 30.2 µM
66 | Cc1cnc2[nH]c(C(F)(F)F)c(CN3CCCC(CO)C3)c2c1 (centres undefined) | > 30.2 µM
67 | Cc1cs/c(=N\C(=O)Cn2nc(N3CCOCC3)ccc2=O)[nH]1 | > 30.2 µM
68 | O=C(NCCNc1ncccn1)C1CCCC1 | > 30.2 µM
69 | COc1cccc(N2CCN(C(=O)C(C)Oc3ccccc3)CC2=O)c1 (centres undefined) | > 30.2 µM
70 | Cc1ccc(-c2cc(C(=O)NCCCc3csc(N)n3)[nH]n2)o1 | > 30.2 µM
71 | O=C1c2c(O)cc(O)cc2O[C@@H](c2ccc(O)cc2)[C@@H]1O | > 30.2 µM
72 | CC(C(=O)NC1CC1)n1nc(-c2cccs2)cc(N)c1=O (centres undefined) | > 30.2 µM
73 | O=C(NCc1ccco1)[C@H]1C[C@@H]2CCN(c3nncs3)C[C@H]2O1 | > 30.2 µM
74 | COCCCN(Cc1ccccn1)S(=O)(=O)N(C)C | > 30.2 µM
75 | CN(Cc1nccs1)C1CCN(c2cccc(-c3cscn3)c2)CC1 | > 30.2 µM

Row | Structure (SMILES) | IC50
76 | Cc1ccc(NC2CCN(C(=O)c3cccc4[nH]ncc34)CC2)nn1 | > 30.2 µM
77 | CN(C)c1ccc(C(=O)N2CCC(c3cc4cnccc4[nH]3)CC2)cc1 | > 30.2 µM
78 | CC(NCC1(N(C)C)CCOCC1)c1ccc(SC(F)F)cc1 (centres undefined) | > 30.2 µM
79 | Cc1nc(Nc2nnc(C)s2)cc(C2CCCN2C)n1 (centres undefined) | > 30.2 µM
80 | COc1ccccc1CNC(=O)N1CCN(Cc2cc(C)on2)CC1 | > 30.2 µM
81 | Cc1c(C(=O)N2CCC2)nnn1-c1ccc2ncccc2c1 | > 30.2 µM
82 | O=C(NCc1ccccc1)C1CN(c2ccccn2)CCO1 (centres undefined) | > 30.2 µM
83 | O=C([C@H]1C[C@@H]2CCN(c3cccc(F)c3)C[C@H]2O1)N1CCCC1 | > 30.2 µM
84 | CNC(=O)[C@@]12CCC3(CCN(S(=O)(=O)C4CC4)CC3)[C@@H]1CN(C(C)=O)C2 | > 30.2 µM
85 | CCN1CCCC1CNC(=O)Cc1c(-c2ccc(Cl)cc2)n[nH]c1C (centres undefined) | > 30.2 µM
86 | Cc1cnn(Cc2ccc(NC(=O)N3CCCC3)cc2)c1 | > 30.2 µM
87 | CC[C@@H]1N(Cc2cc(OC)cc(OC)c2)CCC[C@]12CCC(=O)N2C | > 30.2 µM
88 | CCc1nc(NS(=O)(=O)c2cccc(F)c2C)no1 | > 30.2 µM
89 | COc1ccccc1CNC(=O)CS(=O)(=O)Cc1ccccc1 | > 30.2 µM
90 | Cc1cc(NC(=O)CN2CCc3cnc(C(C)C)nc3C2)on1 | > 30.2 µM
91 | O=C1N(Cc2ccccn2)C[C@H]2CN(C3CCC3)CCN12 | > 30.2 µM
92 | CCNC(=O)C1(Cc2cc(-c3ccccc3)no2)CCCN(C)C1 (centres undefined) | > 30.2 µM
93 | CN1C[C@@H](C(=O)N2CCCOCC2)[C@@]2(CCc3ccccc3C(=O)N2)C1 | > 30.2 µM
94 | CS(=O)(=O)N1CCN(C(=O)c2cc(-c3ccc(Br)s3)n[nH]2)CC1 | > 30.2 µM
95 | CCn1cc(CN2CCC(c3ncc(Cl)cc3S(C)(=O)=O)CC2)c(C)n1 | > 30.2 µM
96 | CC(C)C1CN(C(=O)c2cn3cc(Cl)cnc3n2)CCCN1CC1CC1 (centres undefined) | > 30.2 µM
97 | Cc1noc(C2CCC3(CCN(C(=O)c4ccncn4)CC3)O2)n1 (centres undefined) | > 30.2 µM
98 | O=C(C1CCOC1)N1Cc2ccccc2OC2(CCOCC2)C1 (centres undefined) | > 30.2 µM
99 | c1cc(-c2nnc([C@H]3CCNC3)o2)ccn1 | > 30.2 µM
